For 1 compound, IC50 results are on record in BindingDB's records for doi:10.1016/j.bmcl.2003.11.082 (Cubist Pharmaceuticals, 2004).

Assay [1] addresses Phenylalanine--tRNA ligase (Escherichia coli). In words: Compound was evaluated for the inhibitory activity against Escherichia coli phenylalanyl-tRNA synthetase.
In assay [2] the target is Phenylalanine--tRNA ligase (Staphylococcus aureus). In words: Compound was evaluated for the inhibitory activity against Staphylococcus aureus phenylalanyl-tRNA synthetase.

The IC50 is the concentration needed to halve the response being measured. In the case of `O=C(Nc1ccc(Cl)c(Cl)c1)[C@H]1[C@@H](C(=O)O)C2(O[C@H]1c1ccccc1)C(=O)c1ccccc1C2=O` [4-(3,4-dichlorophenylcarbamoyl)-1',3'-dioxo-5-phenylspiro[tetrahydrofuran-2,2'-(2',3'-dihydro-1'H-indene)]-3-carboxylic acid], the IC50 in assay [1] amounted to 11 µM; in assay [2], 33 µM.
